Data on three compounds can be found in article PMC8348200, “Selective Antifungal Activity and Fungal Biofilm Inhibition of Tryptophan Center Symmetrical Short Peptide” (International Journal of Molecular Sciences, 2021).

Each structure is given as a SMILES string. ≈ marks a conversion by molar mass, not a printed value. Like-named read-outs stand apart in the source and are kept apart here. Where only a bound is given, the exact number is not on record here.

Assay [1] concerns C. albicans cgmcc 2.2086. The assay is described as follows: microbe, parasite or virus in culture. Type of assay: cell-based, Candida albicans. The note with it: RPMI 1640 buffered with MOPS, 28 °C 48 h, 0.5-128 μM, read-out: MICs, C. albicans cgmcc 2.2086. How it is done: (§1) The peptide antimicrobial activity was determined according to the Clinical and Laboratory Standards Institute method, with modifications. Bacteria concentration was measured by ultraviolet spectrophotometer, and fungi concentration was confirmed by McMillan’s turbidimetric method, which compared the fungi solution with the standard McFarland tube in front of the horizontal line on the paper with the naked eye. Because the light has different refract in different liquids. The standard solution is composed of sulfuric acid and barium chloride, which is equivalent to 1*10^8 CFU fungi. After cultivation, the growth of fungi and bacteria was measured by TECAN automatic enzyme label instrument. Briefly, bacterial cells were cultured in MHB until logarithmic phase, yeast colonies cultured in Yeast Peptone Dextrose Agar (YPDA) were picked and diluted in RPMI 1640 growth medium buffered with morpholine propane sulfonic acid (MOPS), and then 50 μL of bacterial or fungi cell solution (0.5–1 × 10^4 CFU/mL) was added to each well of sterile 96-well plates. Each well contained 50 μL of AMPs dissolved in BSA; the final concentrations of the peptides ranged from 0.5 to 128 μM. The lowest concentration of peptide with no microbial growth being observed were measured after incubation at 37 °C for 24 h for bacteria or at 28 °C for 48 h for fungi. Broth with microbial cells and un-inoculated broth were used as positive control and negative controls, respectively.

For a further assay, the system named is C. albicans SP3903. The assay is described as follows: microbe, parasite or virus in culture. The format is cell-based, Candida albicans. As to conditions: clinical isolate, RPMI 1640 buffered with MOPS, 28 °C 48 h, 0.5-128 μM, read-out: MICs, C. albicans SP3903. Here is the method:
as §1

Assay [2] concerns C. albicans Isolated from Alveolar Fluid. In words: microbe, parasite or virus in culture. The format is cell-based, Candida albicans. As to conditions: RPMI 1640 buffered with MOPS, 28 °C 48 h, 0.5-128 μM, read-out: MICs, C. albicans Isolated from Alveolar Fluid. Here is the method:
as §1

The test system of a further assay is S. thermophilus YM-C. In words: microbe, parasite or virus in culture. The format is cell-based, Streptococcus thermophiles. The note with it: 37 °C 24 h, peptides 0.5-128 μM, lowest concentration inhibiting 95% of growth, three independent experiments, read-out: MICs, S. thermophilus YM-C. Here is the method: as §1
In assay [3] the test system is C. albicans cgmcc 2.2086. The assay is described as follows: Propidium iodide influx, flow cytometry. The format is cell-based, Candida albicans. The note with it: 1× MIC, 1 h at 28 °C; 10 μg/mL PI. Here is the method:
Cell membrane permeabilization after treatment with P19, melittin, fluconazole or amphotericin B were also detected via the propidium iodide influx assay. In brief, C. albicans cgmcc 2.2086 cells (1 × 10^4 cells/mL) were treated with antifungal agents for 1 h at 28 °C, then washed, harvested by centrifugation and resuspended in PBS. The cells were treated with 10 μg/mL propidium iodide and incubated for 30 min at room temperature. The uptake of propidium iodide into these cells was analyzed with a FACS flow cytometer (Becton–Dickinson, San Jose, CA) with a laser excitation wavelength of 488 nm. The flow cytometry results can be interpreted as follows. Region Q1 was identified as a living cell region; it represents cells treated with PBS. Q2 region represents the dead cell region. Ignored the surrounding adherent scattered points, the most concentrated scattered points represented the largest cell density. The areas where cells were concentrated represent the state of cells as live or die.

The test system of assay [4] is C. albicans cgmcc 2.2086. The assay is described as follows: Cytoplasmic membrane depolarization assay (DiSC3-5). The format is cell-based, Candida albicans. As to conditions: agents at their MICs, 1 h; 0.4 μM DiSC3-5. How it is done:
To analyze membrane disturbances due to P19, melittin, fluconazole or amphotericin B-treated, cells (1 × 10^4 cells/mL) of C. albicans cgmcc 2.2086 were incubated with antimicrobial agents at their respective MICs for 1 h at room temperature; the cells were then harvested by centrifugation and resuspended in 1 mL PBS (pH 7.4). […] Changes in fluorescence were measured from 0 to 800 s with a F-4500 fluorescence spectrophotometer (Hitachi, Japan) at an excitation wavelength of 622 nm and an emission wavelength of 670 nm.

A further assay has as its system E. coli 25922. In words: microbe, parasite or virus in culture. Type of assay: cell-based, Escherichia coli. The note with it: Escherichia coli, 25922; MHB, 37 °C 24 h, peptides 0.5-128 μM; lowest concentration inhibiting 95% of growth; three independent experiments; read-out: MICs, E. coli 25922. Here is the method:
as §1

For another assay, the system named is E. coli UB1005. The assay is described as follows: microbe, parasite or virus in culture. Type of assay: cell-based, Escherichia coli. As to conditions: Escherichia coli, UB1005; MHB, 37 °C 24 h, peptides 0.5-128 μM; lowest concentration inhibiting 95% of growth; three independent experiments; read-out: MICs, E. coli UB1005. Here is the method: as §1
Assay [5] deals with C. albicans cgmcc 2.2086. In words: Resistance development by sequential passaging at sub-MIC. The note with it: 20-passage repeating treatment at sub-lethal concentration. The format is cell-based, Candida albicans.
Experimental: Resistance development of C. albicans cgmcc 2.2086 against antifungals was explored using a sequential passaging method, described in our previous study [22]. Briefly, MIC testing was first conducted for P19, fluconazole and amphotericin B. After a 24 h incubation, fungal cells growing in a well with a half-MIC level were harvested and diluted to 0.5–1 × 10^4 CFU/mL using RPMI 1640 growth medium buffered with morpholine propane sulfonic acid (MOPS). The inoculum was subjected to subsequent passage MIC testing, and the process was repeated for 30 days. The fold change in MIC was plotted against the number of passages.

Turning to `CC[C@H](C)[C@H](NC(=O)CN)C(=O)NCC(=O)N[C@@H](C)C(=O)N[C@H](C(=O)N[C@@H](CC(C)C)C(=O)N[C@@H](CCCCN)C(=O)N[C@H](C(=O)N[C@@H](CC(C)C)C(=O)N[C@H](C(=O)N[C@H](C(=O)NCC(=O)N[C@@H](CC(C)C)C(=O)N1CCC[C@H]1C(=O)N[C@@H](C)C(=O)N[C@@H](CC(C)C)C(=O)N[C@H](C(=O)N[C@@H](CO)C(=O)N[C@@H](Cc1c[nH]c2ccccc12)C(=O)N[C@H](C(=O)N[C@@H](CCCCN)C(=O)N[C@@H](CCCNC(=N)N)C(=O)N[C@@H](CCCCN)C(=O)N[C@@H](CCCNC(=N)N)C(=O)N[C@@H](CCC(N)=O)C(=O)N[C@@H](CCC(N)=O)C(N)=O)[C@@H](C)CC)[C@@H](C)CC)[C@@H](C)O)[C@@H](C)O)C(C)C)C(C)C` [Melittin, reference compound], the MIC in the assay with C. albicans cgmcc 2.2086 [1] is on record as 4 µM (≈ 11.4 µg/mL); in the assay on C. albicans SP3903 it was 2 µM (≈ 5.69 µg/mL); in assay [2], 4 µM (≈ 11.4 µg/mL); in the assay on S. thermophilus YM-C, over 128 µM. Further, the “increase of PI fluorescent signal” value in the assay with C. albicans cgmcc 2.2086 [3] was “more than 90%”.

As for `OC(Cn1cncn1)(Cn1cncn1)c1ccc(F)cc1F` [Fluconazole, reference compound], the MIC is 1 µM (≈ 0.306 µg/mL) with C. albicans cgmcc 2.2086 [1] (Candida albicans, CGMCC2); 32 µM (≈ 9.8 µg/mL) in the assay with C. albicans SP3903 (Candida albicans, SP3903); 2 µM (≈ 0.613 µg/mL) in assay [2] (Candida albicans); over 128 µM in the assay with E. coli 25922; over 128 µM in the assay on E. coli UB1005; over 128 µM in the assay on S. thermophilus YM-C (Streptococcus thermophilus). Besides, in the assay on C. albicans cgmcc 2.2086 [4], the “membrane depolarization (DiSC3-5 fluorescence intensity)” value is “minor change of membrane depolarization”. Moreover, the “increase in MIC value compared with the first passage” value in the assay with C. albicans cgmcc 2.2086 [5] amounted to 1024 fold.

In the case of `C[C@@H]1[C@H](O)[C@@H](C)/C=C/C=C/C=C/C=C/C=C/C=C/C=C/[C@H](O[C@@H]2O[C@H](C)[C@@H](O)[C@H](N)[C@@H]2O)C[C@@H]2O[C@](O)(C[C@@H](O)C[C@@H](O)[C@H](O)CC[C@@H](O)C[C@@H](O)CC(=O)O[C@H]1C)C[C@H](O)[C@H]2C(=O)O` [Amphotericin B, reference compound], the MIC in the assay with C. albicans cgmcc 2.2086 [1] (Candida albicans, CGMCC2) is 1 µM (≈ 0.924 µg/mL); with C. albicans SP3903 (Candida albicans, SP3903), 0.5 µM (≈ 0.462 µg/mL); in assay [2] (Candida albicans) it was 1 µM (≈ 0.924 µg/mL); in the assay on E. coli 25922, over 128 µM; in the assay with E. coli UB1005, over 128 µM; in the assay on S. thermophilus YM-C (Streptococcus thermophilus) it was over 128 µM. Besides, the “membrane depolarization (DiSC3-5 fluorescence intensity)” value in the assay on C. albicans cgmcc 2.2086 [4] is recorded as “minor change of membrane depolarization”. The “increase in MIC value compared with the first passage” value with C. albicans cgmcc 2.2086 [5] is recorded as 1024 fold.
